Activity calls are given as the source filed them. The calls are words filed in the database; no cut-off is given here.
Key:
MCF7 = experiment: Antiproliferative activity against human MCF7 cells assessed as cell viability at 100 uM incubated for 48 to 72 hrs by MTT assay; assay type: functional; settings: time 48-72 hrs, read-out: Activity
[1] = Cytotoxicity against mouse HT-22 cells assessed as cell viability at 100 uM incubated for 48 to 72 hrs by MTT assay; assay type: toxicity, cell-based; settings: time 48-72 hrs, read-out: Activity
MDA-MB-231 = experiment: Antiproliferative activity against human MDA-MB-231 cells assessed as cell viability at 100 uM incubated for 48 to 72 hrs by MTT assay; assay type: functional; settings: time 48-72 hrs, read-out: Activity
HepG2 = experiment: Antiproliferative activity against human HepG2 cells assessed as cell viability at 100 uM incubated for 48 to 72 hrs by MTT assay; assay type: functional; settings: time 48-72 hrs, read-out: Activity
SJSA-1 = experiment: Antiproliferative activity against human SJSA-1 cells assessed as cell viability at 100 uM incubated for 48 to 72 hrs by MTT assay; assay type: functional; settings: time 48-72 hrs, read-out: Activity
[2] = target: T1, von Hippel-Lindau disease tumor suppressor/E3 ubiquitin-protein ligase Mdm2 (Homo sapiens, UniProt Q00987+P40337); experiment: Protac activity at VHL/MDM2 in human MDA-MB-231 cells assessed as reduction in MDM2 protein level at 80 uM after 48 hrs by Western blotting analysis; assay type: cell-based
[3] = target: T1, von Hippel-Lindau disease tumor suppressor/E3 ubiquitin-protein ligase Mdm2; experiment: Protac activity at VHL/MDM2 in human MCF7 cells assessed as reduction in MDM2 protein level at 100 uM after 48 hrs by Western blotting analysis; assay type: cell-based

T1 sequence (P40337 whole entry, looked up): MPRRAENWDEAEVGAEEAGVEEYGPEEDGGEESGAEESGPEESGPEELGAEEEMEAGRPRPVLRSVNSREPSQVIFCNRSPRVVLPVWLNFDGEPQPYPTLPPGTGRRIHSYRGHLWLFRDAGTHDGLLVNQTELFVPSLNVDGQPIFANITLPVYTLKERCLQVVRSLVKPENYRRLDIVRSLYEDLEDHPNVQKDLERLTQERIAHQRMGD
T1 sequence (Q00987 whole entry, looked up): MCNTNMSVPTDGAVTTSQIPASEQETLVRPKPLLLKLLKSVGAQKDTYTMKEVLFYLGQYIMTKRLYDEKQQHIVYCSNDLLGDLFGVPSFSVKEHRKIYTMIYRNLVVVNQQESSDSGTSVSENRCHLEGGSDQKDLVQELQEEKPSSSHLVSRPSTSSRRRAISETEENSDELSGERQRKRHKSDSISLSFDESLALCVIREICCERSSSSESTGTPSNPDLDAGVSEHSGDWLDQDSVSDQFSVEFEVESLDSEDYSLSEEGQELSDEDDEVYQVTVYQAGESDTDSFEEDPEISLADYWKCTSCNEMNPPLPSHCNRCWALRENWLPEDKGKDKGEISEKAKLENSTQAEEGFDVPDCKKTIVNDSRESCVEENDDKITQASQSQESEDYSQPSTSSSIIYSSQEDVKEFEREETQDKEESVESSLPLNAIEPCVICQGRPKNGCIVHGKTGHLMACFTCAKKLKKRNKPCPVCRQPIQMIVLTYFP

Activity [2]	Activity [3]	Structure (SMILES)	viability at 100 µM (MCF7)	viability at 100 µM [1]	viability at 100 µM (MDA-MB-231)	viability at 100 µM (HepG2)	viability at 100 µM (SJSA-1)
–	–	C[C@H](CC(=O)C[C@@H](C)[C@H]1C[C@H](O)[C@@]2(C)C3=C(C(=O)C[C@]12C)[C@@]1(C)CCC(=O)C(C)(C)[C@@H]1C[C@@H]3O)C(=O)NCc1cn(CCOCCOCCNc2cccc3c2C(=O)N(C2CCC(=O)NC2=O)C3=O)nn1 (some centres not stated)	71.2%	78.2%	63.1%	88.8%	60.6%
–	–	COc1cccc2c1C(=O)c1c(O)c3c(c(O)c1C2=O)C[C@@](O)(C(=O)CO)C[C@@H]3O[C@H]1C[C@H](N)[C@H](O)[C@H](C)O1 [DOXORUBICIN]	57.5%	–	39.4%	64.3%	56.2%
inactive	inactive	C[C@H](CC(=O)C[C@@H](C)[C@H]1C[C@H](O)[C@@]2(C)C3=C(C(=O)C[C@]12C)[C@@]1(C)CCC(=O)C(C)(C)[C@@H]1C[C@@H]3O)C(=O)O [GANODERIC ACID A]	84.7%	–	84.8%	87.2%	98.9%
–	–	Cc1ncsc1-c1ccc([C@H](C)NC(=O)[C@@H]2C[C@@H](O)CN2C(=O)[C@@H](NC(=O)CCCc2cn(CCOCCOCCOCCNC(=O)[C@H](C)CC(=O)C[C@@H](C)[C@H]3C[C@H](O)[C@@]4(C)C5=C(C(=O)C[C@]34C)[C@@]3(C)CCC(=O)C(C)(C)[C@@H]3C[C@@H]5O)nn2)C(C)(C)C)cc1	42.7%	90.2%	25.5%	89.2%	61.8%
–	–	Cc1ncsc1-c1ccc([C@H](C)NC(=O)[C@@H]2C[C@@H](O)CN2C(=O)[C@@H](NC(=O)CCCCc2cn(CCOCCNC(=O)[C@H](C)CC(=O)C[C@@H](C)[C@H]3C[C@H](O)[C@@]4(C)C5=C(C(=O)C[C@]34C)[C@@]3(C)CCC(=O)C(C)(C)[C@@H]3C[C@@H]5O)nn2)C(C)(C)C)cc1	81.9%	97%	70.8%	94%	88.2%
–	–	Cc1ncsc1-c1ccc([C@H](C)NC(=O)[C@@H]2C[C@@H](O)CN2C(=O)[C@@H](NC(=O)CCCc2cn(CCOCCNC(=O)[C@H](C)CC(=O)C[C@@H](C)[C@H]3C[C@H](O)[C@@]4(C)C5=C(C(=O)C[C@]34C)[C@@]3(C)CCC(=O)C(C)(C)[C@@H]3C[C@@H]5O)nn2)C(C)(C)C)cc1	66.9%	97%	41.8%	105%	58.4%
–	–	C[C@H](CC(=O)C[C@@H](C)[C@H]1C[C@H](O)[C@@]2(C)C3=C(C(=O)C[C@]12C)[C@@]1(C)CCC(=O)C(C)(C)[C@@H]1C[C@@H]3O)C(=O)NCc1cn(CCOCCOCCOCCOCCNc2cccc3c2C(=O)N(C2CCC(=O)NC2=O)C3=O)nn1 (some centres not stated)	57.2%	98.3%	57.9%	125%	95.9%
–	–	Cc1ncsc1-c1ccc([C@H](C)NC(=O)[C@@H]2C[C@@H](O)CN2C(=O)[C@@H](NC(=O)CCCCc2cn(CCOCCOCCNC(=O)[C@H](C)CC(=O)C[C@@H](C)[C@H]3C[C@H](O)[C@@]4(C)C5=C(C(=O)C[C@]34C)[C@@]3(C)CCC(=O)C(C)(C)[C@@H]3C[C@@H]5O)nn2)C(C)(C)C)cc1	41.4%	95.9%	31.6%	86.8%	77.1%
–	–	Cc1ncsc1-c1ccc([C@H](C)NC(=O)[C@@H]2C[C@@H](O)CN2C(=O)[C@@H](NC(=O)CCCc2cn(CCOCCOCCNC(=O)[C@H](C)CC(=O)C[C@@H](C)[C@H]3C[C@H](O)[C@@]4(C)C5=C(C(=O)C[C@]34C)[C@@]3(C)CCC(=O)C(C)(C)[C@@H]3C[C@@H]5O)nn2)C(C)(C)C)cc1	40.8%	101%	37.7%	84.6%	74.1%
–	–	C[C@H](CC(=O)C[C@@H](C)[C@H]1C[C@H](O)[C@@]2(C)C3=C(C(=O)C[C@]12C)[C@@]1(C)CCC(=O)C(C)(C)[C@@H]1C[C@@H]3O)C(=O)NCCCn1cc(CNc2cccc3c2C(=O)N(C2CCC(=O)NC2=O)C3=O)nn1 (some centres not stated)	70.5%	94.9%	56.2%	116%	75.7%
–	–	C[C@H](CC(=O)C[C@@H](C)[C@H]1C[C@H](O)[C@@]2(C)C3=C(C(=O)C[C@]12C)[C@@]1(C)CCC(=O)C(C)(C)[C@@H]1C[C@@H]3O)C(=O)NCCOCCOCCOCCn1cc(CNc2cccc3c2C(=O)N(C2CCC(=O)NC2=O)C3=O)nn1 (some centres not stated)	65.5%	97.2%	69.7%	81.3%	83.4%
–	–	C[C@H](CC(=O)C[C@@H](C)[C@H]1C[C@H](O)[C@@]2(C)C3=C(C(=O)C[C@]12C)[C@@]1(C)CCC(=O)C(C)(C)[C@@H]1C[C@@H]3O)C(=O)NCCOCCn1cc(CNc2cccc3c2C(=O)N(C2CCC(=O)NC2=O)C3=O)nn1 (some centres not stated)	81.8%	99.2%	73.1%	110%	92.2%
–	–	Cc1ncsc1-c1ccc([C@H](C)NC(=O)[C@@H]2C[C@@H](O)CN2C(=O)[C@@H](NC(=O)CCCc2cn(CCOCCOCCOCCOCCNC(=O)[C@H](C)CC(=O)C[C@@H](C)[C@H]3C[C@H](O)[C@@]4(C)C5=C(C(=O)C[C@]34C)[C@@]3(C)CCC(=O)C(C)(C)[C@@H]3C[C@@H]5O)nn2)C(C)(C)C)cc1	30.1%	96.9%	28.7%	94.8%	61.7%
–	–	C[C@H](CC(=O)C[C@@H](C)[C@H]1C[C@H](O)[C@@]2(C)C3=C(C(=O)C[C@]12C)[C@@]1(C)CCC(=O)C(C)(C)[C@@H]1C[C@@H]3O)C(=O)NCc1cn(CCOCCNc2cccc3c2C(=O)N(C2CCC(=O)NC2=O)C3=O)nn1 (some centres not stated)	60.7%	83.2%	48.6%	85.8%	88.2%
–	–	C[C@H](CC(=O)C[C@@H](C)[C@H]1C[C@H](O)[C@@]2(C)C3=C(C(=O)C[C@]12C)[C@@]1(C)CCC(=O)C(C)(C)[C@@H]1C[C@@H]3O)C(=O)NCCOCCOCCn1cc(CNc2cccc3c2C(=O)N(C2CCC(=O)NC2=O)C3=O)nn1 (some centres not stated)	76.8%	98.7%	71.6%	105%	85.9%
inactive	inactive	CC(=O)N[C@H](C(=O)N1C[C@H](O)C[C@H]1C(=O)N[C@@H](C)c1ccc(-c2scnc2C)cc1)C(C)(C)C	–	–	–	–	–
–	–	C[C@H](CC(=O)C[C@@H](C)[C@H]1C[C@H](O)[C@@]2(C)C3=C(C(=O)C[C@]12C)[C@@]1(C)CCC(=O)C(C)(C)[C@@H]1C[C@@H]3O)C(=O)NCc1cn(CCCNc2cccc3c2C(=O)N(C2CCC(=O)NC2=O)C3=O)nn1 (some centres not stated)	65.9%	96.7%	73.8%	58.4%	79.6%
–	–	C[C@H](CC(=O)C[C@@H](C)[C@H]1C[C@H](O)[C@@]2(C)C3=C(C(=O)C[C@]12C)[C@@]1(C)CCC(=O)C(C)(C)[C@@H]1C[C@@H]3O)C(=O)NCCOCCOCCOCCOCCn1cc(CNc2cccc3c2C(=O)N(C2CCC(=O)NC2=O)C3=O)nn1 (some centres not stated)	75.9%	91.9%	90.2%	130%	83%
–	–	C[C@H](CC(=O)C[C@@H](C)[C@H]1C[C@H](O)[C@@]2(C)C3=C(C(=O)C[C@]12C)[C@@]1(C)CCC(=O)C(C)(C)[C@@H]1C[C@@H]3O)C(=O)NCc1cn(CCOCCOCCOCCNc2cccc3c2C(=O)N(C2CCC(=O)NC2=O)C3=O)nn1 (some centres not stated)	83.4%	78.2%	74.7%	91%	67%
–	–	Cc1ncsc1-c1ccc([C@H](C)NC(=O)[C@@H]2C[C@@H](O)CN2C(=O)[C@@H](NC(=O)CCCCc2cn(CCCNC(=O)[C@H](C)CC(=O)C[C@@H](C)[C@H]3C[C@H](O)[C@@]4(C)C5=C(C(=O)C[C@]34C)[C@@]3(C)CCC(=O)C(C)(C)[C@@H]3C[C@@H]5O)nn2)C(C)(C)C)cc1	57.9%	102%	97.5%	96.5%	84.6%
–	–	Cc1ncsc1-c1ccc([C@H](C)NC(=O)[C@@H]2C[C@@H](O)CN2C(=O)[C@@H](NC(=O)CCCc2cn(CCCNC(=O)[C@H](C)CC(=O)C[C@@H](C)[C@H]3C[C@H](O)[C@@]4(C)C5=C(C(=O)C[C@]34C)[C@@]3(C)CCC(=O)C(C)(C)[C@@H]3C[C@@H]5O)nn2)C(C)(C)C)cc1	87%	89.1%	99.1%	90.1%	81.5%

Source: ChEMBL document CHEMBL5500349, “Discovery of ganoderic acid A (GAA) PROTACs as MDM2 protein degraders for the treatment of breast cancer” (Eur J Med Chem, 2024)
